Assay results as given in patent US6331642A, “Vitamin D3 analogs” (Hoffmann-La Roche Inc., priority 2000, dated 2001).
Read-outs that look alike come from different tables or passages of the source.

What was measured:
MCF-7 cells [1] = assay: Cell cycle analysis by flow cytometry; format: cell-based; conditions: 10^-7 M, 4 days
Protocol: Cell Cycle Analysis by Flow Cytometry. Cell cycle analysis was performed on MCF-7 cells incubated for 4 days with either 1,25(OH)2 D3 or 1,25(OH)2 -16-ene-5,6-trans-D3 at 10^-7 M. The cells were fixed in chilled methanol overnight before staining with 50 μg/ml propidium iodide, 1 mg/ml Rnase (100 units/ml) and 0.1% NP40. Analysis was performed immediately after staining. All experiments were done at least three times independently. All data were statistically analyzed by Student's test.
Cell cycle Analysis. Effect of 1,25(OH)2 -16-ene-5,6-trans-D3 and 1,25(OH)2 D3 (10^-7, 4 days) on the cell cycle of the MCF-7 cells was determined.

p27^kip1 = assay: Western blot analysis, p27^kip1 in MCF-7 cells; format: cell-based; conditions: Homo sapiens, read-out: increase in expression of p27^kip1
Protocol: Western Blot Analysis. Cells were washed twice with PBS, suspended in Lysis buffer (50 mM Tris Ph 8.0, 150 mM NaCl, 0.1% SDS, 0.5% sodium deoxycholate, 1% NP40, 100 μg/ml phenylmethylsulfonyl fluoride, 2 μg/ml aprotinin, 1 μg/ml pepstatin and 10 μg/ml leupeptin), and placed on ice for 30 minutes. After centrifugation at 15,000 g for 20 minutes at 4° C., the supernatant was collected. Protein concentrations were quantitated. Whole lysates (15 μg) were resolved by 15% sodium dodecyl sulphate polyacrylamide gel, were transferred to an immobilon polyvinylidene difuride membrane and were probed with anti-p27^kip1 rabbit polyclonal antibody and anti-Actin murine monoclonal antibody. Blots were developed.
Western Blot Analysis. The cyclin dependent kinase inhibitors known as p21^waf1 and p27^kip1 are able to inhibit the activity of cyclin kinase and thus slow the progression for the cells through the cell cycle. […] Exposure for one day to 1,25(OH)2 -16-ene-5,6-trans-D3 (10^-7 M) increased expression of p21^waf1 and p27^kip1 by about 3.2-3.5 fold, whereas culture with 1,25(OH)2 D3 (10^-7 M) increased expression of p21^waf1 and p27^kip1 about 1.6-1.8 fold. […] 1,25(OH)2 D3 (10^-7 M, 3 days) increased expression of p21^waf1 and p27^kip1 by 4.8 fold and 3.3 fold, respectively.

ventral prostate = assay: Antiandrogenic activity in castrated testosterone stimulated hamsters, ventral prostate; format: in vivo, male Syrian hamsters
Protocol: 1,25(OH)2 -16-ene-5,6-trans D3 was evaluated for antiandrogenic activity in castrated, testosterone stimulated male Syrian hamsters.
[…] Both compounds were administered in a vehicle of 0.2 ml sesame oil each. Necropsy was performed on day 15. The prostate and seminal vesicles were removed, blotted and weighed. Data were analyzed for statistical significance using the Student's t-test and are expressed as percent inhibition of stimulated response.

MCF-7 cells [2] = assay: Pulse-exposure experiments, soft agar colony assay; format: cell-based; conditions: 4 days of exposure, 10^-7, colonies counted day 14
Protocol: Pulse-Exposure Experiments. The MCF-7 cells were incubated in liquid culture with 10^-7 of 1,25(OH)2 D3 or 1,25(OH)2 -16-ene-5,6-trans-D3 for various duration. After incubation, these cells were carefully washed twice with PBS and viable cells were counted and plated into 24-well plates for soft agar colony assay, as previously described.
Pulse-Exposure Experiments. […] The MCF-7 cells were exposed to either 1,25(OH)2 -16-ene-5,6-trans-D3 or 1,25(OH)2 D3 for various durations, washed thoroughly, plated in soft agar, and colony numbers were enumerated on day 14 of culture.

[3] = system: prostate cancer cell line (LNCaP); assay: Clonogenic assay in soft agar, LNCaP; format: cell-based; conditions: Homo sapiens, LNCaP cells, read-out: ED50 (effective dose that inhibited 50% colony formation)
Protocol: (§1) Cell lines. The breast cancer cell line (MCF-7), prostate cancer cell line (LNCaP) and myeloid leukemia cell line (HL-60) were maintained as follows: MCF-7 cells were maintained in Dulbecco's Modified Eagle Media (DMEM) with 10% fetal calf serum (FCS); LNCaP and HL-60 were cultured in RPMI1640 with 10% FCS; All three cell lines were maintained in a 37° C. incubator containing 5% CO2.
(§2) Vitamin D3 Compounds. The vitamin D3 compounds were dissolved in absolute ethanol at 10^-3 M as stock solution, which were stored at -20° C. and protected from light. For in vitro use, compounds were diluted in DMEM or RPMI medium. For in vivo use, compounds were diluted with phosphate buffered saline (PBS). […]. Washed single-cell suspensions of cells were enumerated and plated into 24-well flat-bottomed plates with a total of […] cells/well in a volume of 400 μl/well. The feeder layer was prepared with agar that had been equilibrated at 42° C. Prior to this step, compounds were pipetted into wells. After incubation, the colonies were counted. All experiments were done at least three times using triplicate plates per experimental point.
(§3) Effect of Vitamin D3 analogs on Clonogenic Assay. […]

[4] = system: LNCaP cells, MCF-7 cells and HL-60 cells; assay: Clonogenic assay, three cell lines together; format: cell-based
Protocol: as §1, §2, §3

sebaceous glands = assay: Sebaceous gland area, hamster ear (image analysis); format: in vivo, Golden Syrian hamsters; conditions: 4 weeks
Protocol: (§4) Two hundred μl of (1,25)OH2 -16-ene-5,6-trans D3 was dissolved in propylene glycol, administered daily (5 days per week) by gavage to […] Golden Syrian hamsters. The animals were sacrificed at 4 weeks and the ears were processed for histological evaluation. The area of the sebaceous glands was measured on histologically prepared cross sections of the ear by image analysis.

[5] = system: myeloid leukemia cell line (HL-60); assay: Clonogenic assay in soft agar, HL-60; format: cell-based; conditions: Homo sapiens, HL-60 cells, read-out: ED50 (effective dose that inhibited 50% colony formation)
Protocol: as §1, §2, §3

ear total lipid fraction = assay: Total lipid fraction of hamster ear; format: in vivo, Golden Syrian hamsters; conditions: 4 weeks
Protocol: as §4
Also examined was the total lipid fraction from one of the ears (extraction by organic solvent followed by weighing the remaining lipid material).

[6] = testosterone + 0.1 μg compound s.c. daily, 14 days

What does the source list for `C=C1/C(=C\C=C2/CCC[C@]3(C)[C@@H]([C@H](C)CCCC(C)(C)O)CC[C@@H]23)C[C@@H](O)C[C@@H]1O` [1,25(OH)2 D3, reference compound]?
number of cells in the G0-G1 phase (MCF-7 cells [1]): significant increase (P≤0.05); proportion of cells in S phase (MCF-7 cells [1]): concomitant decrease; fold induction at 0.1 µM (p27^kip1; MCF7, 24 h): 1.6 to 1.8; fold induction at 0.1 µM (p27^kip1; MCF7, 72 h): 3.3; androgen-induced hypertrophy of the ventral prostate gland (ventral prostate; non-toxic doses (1 μg)): inactive; clonogenic cells inhibited (MCF-7 cells [2]): thirty

With `C=C1/C(=C/C=C2\CCC[C@]3(C)C([C@H](C)CCCC(C)(C)O)=CC[C@@H]23)C[C@@H](O)C[C@@H]1O` [1,25(OH)2-16-ene-5,6-trans-D3, 1,25-Dihydroxy-16-ene-5,6-trans-cholecalciferol] as the compound, how does the IC50 [3] read?
Its IC50 is 1.4 nM.

And the “inhibition of clonal proliferation” value ([4]; 10^-11 to 10^-7 M)?
Its value is “effective in inhibition of clonal proliferation of the three cell lines in a dose-dependent manner”.

And the “potency relative to 1,25(OH)2 D3 (fold more potent)” value ([4]; vs 1,25(OH)2 D3, about)?
Its value is 10-100 fold.

And the “number of cells in the G0-G1 phase” value (MCF-7 cells [1])?
The value was “significant increase (P≤0.05)”.

And the “proportion of cells in S phase” value (MCF-7 cells [1])?
The value was “concomitant decrease”.

What about the fold induction at 0.1 µM (p27^kip1; MCF7, 24 h) of the same compound?
Its fold induction at 0.1 µM is 3.2 to 3.5.

What about the fold induction at 0.1 µM (p27^kip1; MCF7, 72 h) of the same compound?
Its fold induction at 0.1 µM is 3.4.

What about the “androgen-induced hypertrophy of the ventral prostate gland” value (ventral prostate; castrated, testosterone stimulated hamsters) of the same compound?
The value was “substantially suppressed”.

What about the “Ventral prostate Inhib. (percent inhibition of stimulated response)” value (ventral prostate; [6]) of the same compound?
Its value is 77%.

What about the Ventral prostate weight (ventral prostate; [6]) of the same compound?
The Ventral prostate weight was 19 ± 2 mg.

And the clonogenic cells inhibited (MCF-7 cells [2])?
The clonogenic cells inhibited was “Approximately forty”.

What about the “sebaceous gland area, % Change from Control” value (“sebaceous gland area, % Change” for short) (sebaceous glands; 0.01 μg/day gavage) of the same compound?
Its value is -5%.

And the “sebaceous gland area, % Change” value (sebaceous glands; 0.1 μg/day gavage)?
The value was -23%.

What about the “sebaceous gland area, % Change” value (sebaceous glands; 1 μg/day gavage) of the same compound?
Its value is -50%.

And the “sebaceous gland area, % Change” value (sebaceous glands; 10 μg/day gavage)?
The value was -50%.

And the IC50 [5]?
The IC50 was 0.03 nM.

And the “total lipid fraction, % Change from Control” value (shortened to “total lipid fraction, % Change”) (ear total lipid fraction; 0.01 μg/day gavage)?
The value was -26%.

And the “total lipid fraction, % Change” value (ear total lipid fraction; 0.1 μg/day gavage)?
The value was -25%.

What about the “total lipid fraction, % Change” value (ear total lipid fraction; 1 μg/day gavage) of the same compound?
Its value is -37%.

And the “total lipid fraction, % Change” value (ear total lipid fraction; 10 μg/day gavage)?
Its value is -56%.
